According to PubChem BioAssay (NCI):
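In this assay, cells in 96-well plates receive the compound at five concentrations for 48 hours. Endpoints are linearly interpolated between the surrounding concentrations. Abbreviation: GI50, concentration required for 50% inhibition of growth. TGI denotes the concentration required for complete inhibition of growth.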

Legend:
Experiment in all cases: inhibition of tumour cell growth, NCI panel, 48 h
A549 NSCLC = test system: A549 NSCLC
KM12 colon = test system: KM12 colon
HOP-92 NSCLC = test system: HOP-92 NSCLC
RPMI-8226 leukemia = test system: RPMI-8226 leukemia
HOP-62 NSCLC = test system: HOP-62 NSCLC
SNB-75 CNS = test system: SNB-75 CNS
DU-145 prostate = test system: DU-145 prostate
SN12C renal = test system: SN12C renal
SF-539 CNS = test system: SF-539 CNS
SK-OV-3 ovarian = test system: SK-OV-3 ovarian
HCC-2998 colon = test system: HCC-2998 colon
OVCAR-3 ovarian = test system: OVCAR-3 ovarian
SK-MEL-28 melanoma = test system: SK-MEL-28 melanoma
MCF7 breast = test system: MCF7 breast
U251 CNS = test system: U251 CNS
OVCAR-8 ovarian = test system: OVCAR-8 ovarian
NCI-H226 lung = test system: NCI-H226 lung
HS 578T breast = test system: HS 578T breast
OVCAR-5 ovarian = test system: OVCAR-5 ovarian
EKVX NSCLC = test system: EKVX NSCLC
786-0 renal = test system: 786-0 renal
OVCAR-4 ovarian = test system: OVCAR-4 ovarian
SW-620 colon = test system: SW-620 colon
MALME-3M melanoma = test system: MALME-3M melanoma
MOLT-4 leukemia = test system: MOLT-4 leukemia
K-562 leukemia = test system: K-562 leukemia
HCT-15 colon = test system: HCT-15 colon
IGROV1 ovarian = test system: IGROV1 ovarian

How did the GI50 (A549 NSCLC) turn out when `COc1ccc(C2C(C#N)=C(N)Oc3c2sc2ccc(C)cc32)cc1` (stereo unspecified) was run?
Its GI50 is 6.94 µM.

What about the TGI (A549 NSCLC) of the same compound?
The TGI was over 100 µM.

What about the GI50 (KM12 colon) of the same compound?
Its GI50 is 3.81 µM.

What about the TGI (KM12 colon) of the same compound?
The TGI was over 100 µM.

What about the GI50 (HOP-92 NSCLC) of the same compound?
Its GI50 is 1.05 µM.

And the TGI (HOP-92 NSCLC)?
The TGI was 7.07 µM.

And the GI50 (RPMI-8226 leukemia)?
The GI50 was 3.95 µM.

And the TGI (RPMI-8226 leukemia)?
The TGI was over 100 µM.

And the GI50 (HOP-62 NSCLC)?
The GI50 was 3.71 µM.

And the TGI (HOP-62 NSCLC)?
Its TGI is 28.1 µM.

What about the GI50 (SNB-75 CNS) of the same compound?
Its GI50 is 1.9 µM.

And the TGI (SNB-75 CNS)?
The TGI was 5.51 µM.

What about the GI50 (DU-145 prostate) of the same compound?
The GI50 was 7.08 µM.

What about the TGI (DU-145 prostate) of the same compound?
Its TGI is over 100 µM.

And the GI50 (SN12C renal)?
Its GI50 is 4.46 µM.

What about the TGI (SN12C renal) of the same compound?
The TGI was over 100 µM.

What about the GI50 (SF-539 CNS) of the same compound?
Its GI50 is 3.21 µM.

And the TGI (SF-539 CNS)?
Its TGI is 13.4 µM.

What about the GI50 (SK-OV-3 ovarian) of the same compound?
Its GI50 is 5.2 µM.

And the TGI (SK-OV-3 ovarian)?
Its TGI is 54.8 µM.

What about the GI50 (HCC-2998 colon) of the same compound?
Its GI50 is 6.37 µM.

And the TGI (HCC-2998 colon)?
Its TGI is over 100 µM.

What about the GI50 (OVCAR-3 ovarian) of the same compound?
Its GI50 is 3.71 µM.

And the TGI (OVCAR-3 ovarian)?
Its TGI is over 100 µM.

What about the GI50 (SK-MEL-28 melanoma) of the same compound?
Its GI50 is 5.86 µM.

And the TGI (SK-MEL-28 melanoma)?
The TGI was over 100 µM.

And the GI50 (MCF7 breast)?
Its GI50 is 1.25 µM.

What about the TGI (MCF7 breast) of the same compound?
Its TGI is over 100 µM.

And the GI50 (U251 CNS)?
The GI50 was 3.78 µM.

What about the TGI (U251 CNS) of the same compound?
The TGI was 27.5 µM.

What about the GI50 (OVCAR-8 ovarian) of the same compound?
Its GI50 is 9.93 µM.

What about the TGI (OVCAR-8 ovarian) of the same compound?
Its TGI is over 100 µM.

What about the GI50 (NCI-H226 lung) of the same compound?
Its GI50 is 3.92 µM.

What about the TGI (NCI-H226 lung) of the same compound?
The TGI was 57.5 µM.

What about the GI50 (HS 578T breast) of the same compound?
The GI50 was 3.31 µM.

What about the TGI (HS 578T breast) of the same compound?
The TGI was 36.8 µM.

What about the GI50 (OVCAR-5 ovarian) of the same compound?
The GI50 was 5.77 µM.

What about the TGI (OVCAR-5 ovarian) of the same compound?
Its TGI is over 100 µM.

And the GI50 (EKVX NSCLC)?
The GI50 was 7.35 µM.

And the TGI (EKVX NSCLC)?
Its TGI is over 100 µM.

And the GI50 (786-0 renal)?
Its GI50 is 3.64 µM.

And the TGI (786-0 renal)?
Its TGI is 15.1 µM.

What about the GI50 (OVCAR-4 ovarian) of the same compound?
Its GI50 is 8.07 µM.

What about the TGI (OVCAR-4 ovarian) of the same compound?
The TGI was over 100 µM.

What about the GI50 (SW-620 colon) of the same compound?
The GI50 was 2.81 µM.

And the TGI (SW-620 colon)?
The TGI was over 100 µM.

What about the GI50 (MALME-3M melanoma) of the same compound?
Its GI50 is 3.56 µM.

What about the TGI (MALME-3M melanoma) of the same compound?
Its TGI is 62.3 µM.

And the GI50 (MOLT-4 leukemia)?
Its GI50 is 3.63 µM.

And the TGI (MOLT-4 leukemia)?
The TGI was over 100 µM.

And the GI50 (K-562 leukemia)?
The GI50 was 1.56 µM.

And the TGI (K-562 leukemia)?
Its TGI is over 100 µM.

And the GI50 (HCT-15 colon)?
Its GI50 is 3.35 µM.

What about the TGI (HCT-15 colon) of the same compound?
The TGI was over 100 µM.

And the GI50 (IGROV1 ovarian)?
The GI50 was 4.64 µM.

And the TGI (IGROV1 ovarian)?
The TGI was over 100 µM.
